Like-named read-outs stand apart in the source and are kept apart here.

Consider 15 compounds from publication PMC5567267, “Discovery of a potent protein kinase D inhibitor: insights in the binding mode of pyrazolo[3,4-d]pyrimidine analogues” (MedChemComm, 2017).

The target in the assay is T1, PKD2 (Homo sapiens, UniProt Q9BZL6).
T1 construct: made in house; host or cells: HEK293T cells, transient transfection with pDEST27-PRKD2, stimulated with 500 nM PDB before lysis
T1 sequence (Q9BZL6 1-878): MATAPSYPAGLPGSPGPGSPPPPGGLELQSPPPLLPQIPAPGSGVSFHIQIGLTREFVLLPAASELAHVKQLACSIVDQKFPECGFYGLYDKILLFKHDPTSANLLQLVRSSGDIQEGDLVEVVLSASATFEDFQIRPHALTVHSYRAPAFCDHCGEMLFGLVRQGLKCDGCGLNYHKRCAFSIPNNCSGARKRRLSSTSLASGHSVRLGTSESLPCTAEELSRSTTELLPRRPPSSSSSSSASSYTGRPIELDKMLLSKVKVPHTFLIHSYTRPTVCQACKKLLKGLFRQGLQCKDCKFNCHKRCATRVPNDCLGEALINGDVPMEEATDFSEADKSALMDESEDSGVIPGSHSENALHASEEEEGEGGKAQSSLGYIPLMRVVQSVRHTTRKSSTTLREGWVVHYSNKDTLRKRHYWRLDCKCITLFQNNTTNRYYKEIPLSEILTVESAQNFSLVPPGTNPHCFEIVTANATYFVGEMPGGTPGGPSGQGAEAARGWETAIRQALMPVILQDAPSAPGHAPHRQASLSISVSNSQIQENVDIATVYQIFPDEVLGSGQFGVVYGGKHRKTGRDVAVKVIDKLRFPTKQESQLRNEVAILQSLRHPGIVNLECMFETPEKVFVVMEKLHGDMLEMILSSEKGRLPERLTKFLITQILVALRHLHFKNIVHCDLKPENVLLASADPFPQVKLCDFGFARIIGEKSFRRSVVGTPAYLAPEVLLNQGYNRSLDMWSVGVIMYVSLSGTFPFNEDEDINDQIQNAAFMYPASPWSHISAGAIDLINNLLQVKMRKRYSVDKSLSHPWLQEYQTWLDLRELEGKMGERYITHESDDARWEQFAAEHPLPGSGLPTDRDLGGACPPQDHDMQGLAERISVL
Description: PKD2 screening assay (in vitro radiometric kinase assay). It counts as biochemical. Particulars: for remaining activity at 1 µM: 10 min; for IC50: radiometric. The protocol:
All 35 described analogues were characterized in vitro via an initial screening at 1 μM against PKD2. […]
scanning of a coomassie stained SDS-polyacrylamide gel.
An in vitro radiometric assay was used to determine the inhibition of PKD in presence of various compounds at a […]
determinations. Reactions were carried out in 40µl of a mixture containing 50mM Tris-HCl pH 7.4, 10mM MgCl2, 50ng of PDB stimulated GST-PKD2, 4µg/ml Syntide-2 (Sigma Aldrich, St. Louis, USA), 25µM ATP and 2µCi [γ-32P]ATP (Perkin-Elmer, Massachusetts, USA). After 10’ the reaction was stopped by spotting 30µl of the reaction on whatmann P81 filter paper. The filter papers were washed 3 times in 0.5% phosphoric acid, followed by one wash in 100% acetone. Subsequently the papers were air-dried and counted using the Tri-Carb 2810 TR scintillation counter (Perkin-Elmer). Percentage of PKD2 inhibition was determined relative to a condition where no inhibitor was added (0,1% dimethylsulfoxide (DMSO)). Graphs were plotted and IC50 values were determined using the GraphPad software package (Prism). […]

Where [1] appears, read: ESI table, initial screening of all analogues at 1µM, read-out: % PKD2 activity remaining (1µM) (average ±SD).
Where [2] appears, read: compound at 1 μM, PDB stimulated GST-PKD2, Syntide-2, 25µM ATP, relative to no inhibitor (DMSO), read-out: % PKD 2 activity remaining (1 μM) (Average ± SD).
Where [3] appears, read: PDB stimulated GST-PKD2, Syntide-2, 25µM ATP.

Take “2-acetyl-5-(4-amino-1-(tert-butyl)-1H-pyrazolo[3,4-d]pyrimidin-3-yl)benzaldehyde [Compound 6f]”: the “% PKD2 activity remaining (1µM) (average ±SD)” value (ESI table, initial screening of all analogues at 1µM) amounted to 81 ±4.5%.

The term IC50 denotes the concentration that gives 50% inhibition. With `CC(C)(C)n1nc(-c2ccccc2)c2c(N)ncnc21` [Compound 6a, 1-tert-butyl-3-phenyl-1H-pyrazolo[3,4-d]pyrimidin-4-amine], the remaining activity at 1 µM reads like this: under setting [1], 77 ± 2.9%; under setting [2], 76 ± 2.9%. Besides, the half-inhibitory concentration (IC50) under setting [3] came out at 9490 nM.

For `CC(C)(C)n1nc(-c2ccc(F)cc2)c2c(N)ncnc21` [Compound 6b, 1-tert-butyl-3-(4-fluorophenyl)-1H-pyrazolo[3,4-d]pyrimidin-4-amine], under setting [1], the remaining activity at 1 µM was 81 ± 4%.

For `CC(C)(C)n1nc(-c2ccccc2Cl)c2c(N)ncnc21` [Compound 6c, 1-tert-butyl-3-(2-chlorophenyl)-1H-pyrazolo[3,4-d]pyrimidin-4-amine], the remaining activity at 1 µM under setting [1] amounted to 73 ± 2.4%.

Turning to `CC(C)(C)n1nc(-c2ccccc2F)c2c(N)ncnc21` [Compound 6d, 1-tert-butyl-3-(2-fluorophenyl)-1H-pyrazolo[3,4-d]pyrimidin-4-amine], the remaining activity at 1 µM under setting [1] came out at 83 ± 9.4%.

Consider `COc1ccc(-c2nn(C(C)(C)C)c3ncnc(N)c23)cc1` [Compound 6e, 1-tert-butyl-3-(4-methoxyphenyl)-1H-pyrazolo[3,4-d]pyrimidin-4-amine], for which, under setting [1], the remaining activity at 1 µM was 80 ± 7%.

Take `C=Cc1ccc(-c2nn(C(C)(C)C)c3ncnc(N)c23)cc1` [Compound 6g, 1-(tert-butyl)-3-(4-vinylphenyl)-1H-pyrazolo[3,4-d]pyrimidin-4-amine]: the remaining activity at 1 µM under setting [1] is 84 ± 9.4%.

`CC(C)(C)n1nc(-c2ccc3ccccc3c2)c2c(N)ncnc21` [Compound 6h, 1-tert-butyl-3-(2-naphthyl)-1H-pyrazolo[3,4-d]pyrimidin-4-amine]: the remaining activity at 1 µM under setting [1] stood at 59 ± 5%.

With `CC(C)(C)n1nc(-c2cccc3ccccc23)c2c(N)ncnc21` [Compound 6i, 1-tert-butyl-3-(1-naphthyl)-1H-pyrazolo[3,4-d]pyrimidin-4-amine], the remaining activity at 1 µM runs as follows: under setting [1], 34 ± 0.4%; under setting [2], 34 ± 0.4%. Under setting [3], this compound showed a 50% inhibitory concentration (IC50) of 403 nM.

For the compound `CC(C)(C)n1nc(-c2ccc(C#N)cc2)c2c(N)ncnc21` [Compound 6j, 4-(4-amino-1-(tert-butyl)-1H-pyrazolo[3,4-d]pyrimidin-3-yl)benzonitrile], under setting [1], the remaining activity at 1 µM is 97 ± 0.8%.

Turning to `CC(C)(C)c1ccc(-c2nn(C(C)(C)C)c3ncnc(N)c23)cc1` [Compound 6k, 1-(tert-butyl)-3-(4-(tert-butyl)phenyl)-1H-pyrazolo[3,4-d]pyrimidin-4-amine], the remaining activity at 1 µM under setting [1] was 93 ± 1.5%.

Take `CC(C)(C)n1nc(Cc2ccccc2)c2c(N)ncnc21` [Compound 7a, 3-benzyl-1-tert-butyl-1H-pyrazolo[3,4-d]pyrimidin-4-amine]: the remaining activity at 1 µM is, setting by setting: under setting [1], 35 ± 1.3%; under setting [2], 35 ± 1.3%. In addition, 449 nM corresponded to half-maximal inhibition under setting [3] (IC50).

In the case of `CC(C)(C)n1nc(Cc2ccccc2Cl)c2c(N)ncnc21` [Compound 7b, 1-tert-butyl-3-(2-chlorobenzyl)-1H-pyrazolo[3,4-d]pyrimidin-4-amine], the remaining activity at 1 µM amounted to 41 ± 2.6% under setting [1] and 41 ± 2.6% under setting [2]. Further, the IC50 under setting [3] came to 451 nM.

As for `CC(C)(C)n1nc(Cc2cccc(Cl)c2)c2c(N)ncnc21` [Compound 7c, 1-tert-butyl-3-(3-chlorobenzyl)-1H-pyrazolo[3,4-d]pyrimidin-4-amine], the remaining activity at 1 µM was 56 ± 2.4% under setting [1] and 55 ± 2.4% under setting [2].

Consider `Cn1nc(Cc2cccc(Cl)c2)c2c(N)ncnc21` [Compound 7d, 3-(3-chlorobenzyl)-1-methyl-1H-pyrazolo[3,4-d]pyrimidin-4-amine], for which the remaining activity at 1 µM is, setting by setting: under setting [1], 83 ± 6.4%; under setting [2], 83 ± 6.4%. For the same compound, half-maximal inhibition under setting [3] (IC50) was put at 4840 nM.
